From ChEMBL document CHEMBL5550181 (Bioorg Med Chem, 2024) come the findings set out here.

Series [1] concerns the target T1, Proteasome subunit beta type-9 (Homo sapiens, UniProt P28065).
T1 sequence (P28065 whole entry): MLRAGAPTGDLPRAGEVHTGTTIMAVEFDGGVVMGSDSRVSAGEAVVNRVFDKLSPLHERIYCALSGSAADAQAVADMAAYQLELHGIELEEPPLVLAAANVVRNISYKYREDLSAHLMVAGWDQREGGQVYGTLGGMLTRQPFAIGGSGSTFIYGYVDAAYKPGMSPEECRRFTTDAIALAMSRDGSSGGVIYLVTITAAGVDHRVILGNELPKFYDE
The experiment in a line: Inhibition of human LMP2 beta-1i subunit using Ac-PAL-AMC as substrate preincubated with compound for 30 mins followed by substrate addition and measured after 1 hr by fluorescence based analysis.

Series [2] has as its target T2, Proteasome subunit beta type-8 (Homo sapiens, UniProt P28062).
T2 sequence (P28062 whole entry): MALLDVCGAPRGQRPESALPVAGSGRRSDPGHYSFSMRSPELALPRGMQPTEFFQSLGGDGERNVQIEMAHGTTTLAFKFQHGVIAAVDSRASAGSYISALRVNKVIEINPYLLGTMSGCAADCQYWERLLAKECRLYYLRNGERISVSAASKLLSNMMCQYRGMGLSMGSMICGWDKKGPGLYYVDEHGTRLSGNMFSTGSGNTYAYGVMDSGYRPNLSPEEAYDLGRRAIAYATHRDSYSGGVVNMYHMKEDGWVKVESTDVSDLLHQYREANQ
The experiment in a line: Inhibition of human LMP7 beta -5i subunit using Ac-ANW-AMC as substrate preincubated with compound for 30 mins followed by substrate addition and measured after 1 hr by fluorescence based analysis.

Series [3] in a line: Drug metabolism in human liver microsomes assessed as reactive metabolite formation by measuring dGSH trapping measured per mg of protein incubated for 60 mins in presence of NADPH by HPLC analysis. The series is classed as ADME, Microsome. Conditions: 1 h. On the technique in general: Microsomes from liver hold many membrane-bound enzymes, among them those of drug oxidation.

The species entered for series [4] is Homo sapiens. The experiment in a line: Selectivity index, ratio of IC50 for inhibition of human 20S proteosome beta5c subunit using Ac-WLA-AMC as substrate to IC50 for inhibition of human LMP7 beta -5i subunit using Ac-ANW-AMC as substrate.
The species named for series [5] is Homo sapiens. The experiment in a line: Selectivity index, ratio of IC50 for inhibition of human 20S proteosome beta5c subunit using Ac-WLA-AMC as substrate to IC50 for inhibition of human LMP2 beta-1i subunit using Ac-PAL-AMC as substrate.
Series [6] addresses T3, Proteasome Macropain subunit MB1 (Homo sapiens, UniProt P28074).
T3 sequence (P28074 whole entry): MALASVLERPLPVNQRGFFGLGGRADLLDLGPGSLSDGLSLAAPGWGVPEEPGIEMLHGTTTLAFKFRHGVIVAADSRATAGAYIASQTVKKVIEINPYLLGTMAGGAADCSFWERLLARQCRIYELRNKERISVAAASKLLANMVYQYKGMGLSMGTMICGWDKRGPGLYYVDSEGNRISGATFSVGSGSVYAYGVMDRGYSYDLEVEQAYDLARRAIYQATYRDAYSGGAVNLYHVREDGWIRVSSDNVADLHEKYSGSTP
Put plainly: Inhibition of human 20S proteosome beta5c subunit using Ac-WLA-AMC as substrate preincubated with compound for 30 mins followed by substrate addition and measured after 1 hr by fluorescence based analysis.

Series [7] relates to Mus musculus. Put plainly: Inhibition of NP30-IgG production in NP-OVA-induced po dosed C57BL/6 mouse model administered for 9 days by ELISA analysis. The series is classed as functional, organism-based. Particulars: dose 3-30 mg/kg, time 9.0 day. (In general: An ELISA detects its analyte on a solid surface through an enzyme-linked reagent.)
The test system of series [8] is Mus musculus. Put plainly: Reduction in NP30-specific IgG level in GCB of NP-OVA-induced C57BL/6 mouse model at 10 to 30 mg/kg, po administered for 9 days by flow cytometry analysis. The series is classed as functional, organism-based. Conditions: dose 10-30 mg/kg, time 9.0 day. (In flow cytometry, cells or beads pass a laser one at a time.)
The next series deals with Plasma. The experiment in a line: Reduction in NP30-specific IgG level in plasma of NP-OVA-induced C57BL/6 mouse model at 30 mg/kg, po administered for 9 days by ELISA analysis. The series is classed as functional, organism-based. Conditions: time 9.0 day.
The nature of series [9]: Effect on hematological parameters in C57BL/6 mouse at 3 to 30 mg/kg, po administered for 9 days. The series is classed as toxicity, organism-based. Conditions: in vivo, 216 h, dose 3-30 mg/kg, time 9 day.
The nature of series [10]: Permeability of the compound by PAMPA assay. Conditions: read-out: permeability. The series is classed as ADME.
Series [11] can be described thus: Microsomal stability in mouse liver microsome assessed as intrinsic clearance. Particulars: liver microsomes, read-out: CLH. The series is classed as ADME.

The IC50 is the concentration that inhibits the measured activity by half.

Calls of active or inactive are those of the source. No cut-off for these calls is given here.

`CC(C)C[C@H](NC(=O)c1cn(C2CCCCC2)nn1)B(O)O`: the IC50 in [1] stood at 3 nM; in series [2], 73 nM; in series [6], 3220 nM. In series [3], the Drug metabolism was determined as 1273 pmol/h. The figures for the Ratio IC50 in the series filed under Homo sapiens [4] and in the series listed under Homo sapiens [5] were 44 and 1070, respectively.

With `O=C(N[C@@H](CC1CCCC1)B(O)O)c1cn(C2CCCCC2)nn1`, the IC50 in series [1] is < 5 nM; in series [2], 63 nM; in series [6] it was 15400 nM. Further, in [3], the Drug metabolism is 426 pmol/h. Also, the Ratio IC50 in the series listed under Homo sapiens [4] was 244.

Consider `O=C(N[C@@H](CC1CCCCC1)B(O)O)c1cn(C2CCCCC2)nn1`, for which the results for the IC50 in series [1], in [2] and in series [6] were < 10 nM, 130 nM and 19500 nM, respectively. In addition, the Drug metabolism in series [3] was found to be 680 pmol/h. In the series listed under Homo sapiens [4], the Ratio IC50 came out at 150.

Regarding `COc1ccc([C@@H](O)[C@H](NC(=O)[C@H](C)NC(=O)CN2CCOCC2)C(=O)N[C@@H](CC2=CCCC2)C(=O)[C@@]2(C)CO2)cc1` [ZETOMIPZOMIB], the IC50 in [1] is 557 nM; in series [2], 75 nM; in series [6] it was 720 nM. The Ratio IC50 worked out at 9.6 in the series listed under Homo sapiens [4] and 1.29 in the series filed under Homo sapiens [5].

Consider `O=C(N[C@@H](Cc1ccccc1)B(O)O)c1cn(C2CCCCC2)nn1`, for which the IC50 in [1] is 5 nM; in series [2], 8 nM; in series [6], 302 nM. For the same molecule, the Drug metabolism in series [3] came to 736 pmol/h. Moreover, in the series filed under Homo sapiens [4], the Ratio IC50 came out at 38.

Consider `O=C(N[C@@H](CC1CCC1)B(O)O)c1cn(C2CCCCC2)nn1`, for which the values for the IC50 in series [1], in series [2] and in series [6] were < 5 nM, 198 nM and 13100 nM, respectively. Moreover, in the series listed under Homo sapiens [4], the Ratio IC50 worked out at 66.

For the molecule `CC(C)C[C@H](NC(=O)c1cc(C2CCCCC2)n(C)n1)B(O)O`, the IC50 in series [1] is 188 nM; in [2], 11200 nM; in [6], > 80000 nM. Besides, the Ratio IC50 in the series listed under Homo sapiens [4] was > 7.

As to `O=C(N[C@@H](Cc1coc2ccccc12)B(O)O)[C@@H]1C[C@H]2CC[C@@H]1O2`, the figures for the half-maximal inhibitory concentration (IC50) in series [1], in series [2] and in series [6] were > 80000 nM, 8 nM and 2410 nM, respectively. The Ratio IC50 in the series filed under Homo sapiens [4] was 302.

Consider `CC(C)C[C@H](NC(=O)c1cc(C2CCCCC2)no1)B(O)O`, for which the IC50 in [1] worked out at 5 nM; in series [2], 192 nM; in series [6], 3690 nM. Also, the Ratio IC50 in the series filed under Homo sapiens [4] was found to be 19.

`CC(C)C[C@H](NC(=O)c1cc(C2CCCCC2)nn1C)B(O)O`: the IC50 stood at 226 nM in [1], 888 nM in series [2] and 19500 nM in series [6]. In addition, the Ratio IC50 in the series filed under Homo sapiens [4] is 22.

With `Cc1c(C(=O)N[C@@H](CC(C)C)B(O)O)nnn1C1CCCCC1`, the IC50 was 189 nM in [1], 1210 nM in [2] and 47300 nM in [6]. For the same molecule, the Ratio IC50 in the series filed under Homo sapiens [4] was determined as 39.

As to `O=C(N[C@H](B(O)O)C1CCCC1)c1cn(C2CCCCC2)nn1`, the results for the IC50 in [1], in series [2] and in series [6] were 18 nM, 132 nM and 5200 nM, respectively. For the same molecule, the Ratio IC50 in the series filed under Homo sapiens [4] was determined as 39.

Turning to `CC(C)C[C@H](NC(=O)c1ccc(C2CCCCC2)nn1)B(O)O`, the IC50 was 10 nM in [1], 82 nM in series [2] and 2950 nM in series [6]. Also, the Ratio IC50 in the series listed under Homo sapiens [4] amounted to 36.

Take `CC(C)C[C@H](NC(=O)c1cc(C2CCCCC2)on1)B(O)O`: the IC50 in series [1] was determined as 9 nM; in [2], 145 nM; in series [6], 2980 nM. In addition, the Ratio IC50 in the series listed under Homo sapiens [4] worked out at 21.

On to `O=C(N[C@H](B(O)O)C1CCCCC1)c1cn(C2CCCCC2)nn1`, for which, in the series with Mus musculus [7], the inhibition result is “Dose-Dependent Effect”. Also, the result with Mus musculus [8] and in the series on Plasma was Active. Besides, the values for the IC50 in [1], in series [2] and in series [6] were 10 nM, 257 nM and 44600 nM, respectively. Also, the Activity result in series [9] is given as “Non-Toxic”. The Drug metabolism in series [3] stood at 342 pmol/h. Moreover, the Papp in series [10] turned out to be 11.9 ×10⁻⁶ cm/s. Besides, in series [11], the microsomal CLint is 99 µL/min/mg. Besides, in the series listed under Homo sapiens [4], the Ratio IC50 amounted to 174.

Take `O=C(N[C@H](B(O)O)C1CCC1)c1cn(C2CCCCC2)nn1`: the results for the IC50 in [1], in series [2] and in [6] were < 5 nM, 655 nM and 4950 nM, respectively. The Ratio IC50 in the series listed under Homo sapiens [4] stood at 8.

On to `CC(C)C[C@H](NC(=O)c1cnn(C2CCCCC2)n1)B(O)O`, for which the IC50 came to 62 nM in [1], 1570 nM in [2] and 6310 nM in series [6]. Moreover, the Ratio IC50 in the series filed under Homo sapiens [4] worked out at 4.

Turning to `CC(C)C[C@H](NC(=O)c1cnn(C2CCCCC2)c1)B(O)O`, the IC50 in series [1] is 132 nM; in series [2], 18800 nM; in series [6] it was > 80000 nM. In addition, the Ratio IC50 in the series filed under Homo sapiens [4] was > 4.
